Experimental data from patent publication US20210308196A1, “COMPOSITIONS AND METHODS TO PROMOTE HOST DEFENSE AND STIMULATE, EXPAND, AND/OR RESET T CELL REPERTOIRES” (EVOLVE BIOSYSTEMS, INC., priority 2018, published 2021).

Legend:
peanut extract allergy = test: Prevention of murine peanut allergy; assay type: in vivo, mouse
Description: Germ-free mouse pups are weaned 3-4 weeks after birth and put on a polysaccharide-free diet that is enriched for Vitamin A. As soon as the mouse pups are weaned, they are gavaged with a dysbiotic (no Bifidobacterium sp. and high proteobacteria) human infant microbiome at Day 1 of the experiment. The mice are divided into 4 groups: control, control plus LNnT, B. infantis, and B. infantis plus LNnT. Mice are given the composition for 21 days. All Groups receive B. infantis or placebo every 3 days by gavage. The LNnT or placebo is added to the drinking water for 21 days. Mice receive intragastric gavage of peanut extract on weekly at 5 mg/mouse for sensitization and then 25 mg/mouse at week 5 for challenge with 10 μg of Cholera toxin to elicit anaphylaxis. Control animals receive intragastric gavage with vehicle only. Anaphylaxis symptoms are evaluated, and then mice are necropsied. Plasma samples are collected for evaluation of histamine and IgE concentrations. White blood cells are isolated for PBMC characterization and evaluation of regulatory T cell population expansion using flow cytometry specific for CD4, CD25, Foxp3, Helios, Neuropilin, CD8, CD44, CD62L, IFNgamma, IL-17, and B cell populations, including Bregs and plasma cells using the following markers: IgM, CD5, CD24, CD19, CD19, CD20, CD34, CD38, CD45R, CD78, CD80, and CD138.

[1] = Microbial short chain fatty acids by gas chromatography; assay type: in vivo, human; details: treatment group
Description: Microbial production of short chain fatty acids (SCFA): SCFA can modulate intestinal inflammation by regulating epithelial barrier function. Microbial short chain fatty acids (SCFA) are extracted by methods previously described and analyzed by gas chromatography HD and found to be elevated in the treatment group

[2] = system: IL-1β, IL-2, IL-5, IL-6, IL-8, IL-10, IL-22, IFNγ, TNFα; test: Fecal cytokines, multiplexed immunoassay (MSD U-PLEX Inflammation Panel 1); assay type: in vivo, human; details: for IFNγ Median (SD) / IL-1β Median (SD) / IL-2 Median (SD) / IL-5 Median (SD) / IL-6 Median (SD) / IL-8 Median (SD) / IL-10 Median (SD) / IL-22 Median (SD) / TNFα Median (SD): infant feces
Description: Multiplexed Immunoassays. Interleukin (IL)-1β, IL-2, IL-5, IL-6, IL-8, IL-10, IL-22, interferon (IFN) γ, and tumor necrosis factor (TNF) α were quantified from 80 mg of stool diluted 1:10 in Meso Scale Discovery (MSD; Rockville, Md.) diluent using the U-PLEX Inflammation Panel 1 (human) Kit according to the manufacturer's instructions. Standards and samples were measured in duplicate and blank values were subtracted from all readings. The plate was then read on a Sector Imager 2400 MSD Discovery Workbench analysis software. Statistical Analysis. Demographic differences between Control and EVC001-fed infants was analyzed using Fisher's Exact test for categorical data and Wilcoxon rank sum (Mann-Whitney U) test for continuous data. […] The relationship between fecal calprotectin concentration and % Bifidobacteriaceae was quantified using Spearman's Rho correlation, and the differences in calprotectin concentration between high (>25%) and low (<25%) Bifidobacteriaceae abundance was assessed using the Wilcoxon rank sum test. One subject with abnormally high fecal calprotectin concentration (greater than 3 standard deviations above the mean of both treatment and control data) was considered an extreme outlier and removed from the aforementioned calprotectin analyses. Wilcoxon rank sum tests were performed to assess relative abundance for each bacterial taxa and cytokine concentration differences. For radar plots, medians were adjusted to log scale, then normalized within each cytokine group from 0 to 1. Differences overtime within each cytokine group were evaluated using the Wilcoxon rank sum test. P-values were adjusted using the Bonferroni-Holms method and considered statistically significant if P<0.05. Statistical analyses were applied to determine the significance of global cytokine profile as determined by computing a Bray-Curtis distance metric translated into a principal coordinate analysis and visualized with EMPeror. Global cytokine profile differences by group status were then determined using a permutational multivariate analysis of variance (PERMANOVA), and significant P-values were determined using 999 Monte Carlo permutations. To assess the relationship between the global cytokine profile and the microbiome, we used a Procrustes analysis. The taxonomic operational taxonomic unit (OTU) table at the family level was computed using QIIME, and the cytokine table was used to generate a distance matrix for each, using a weighted UniFrac for 16S and Bray-Curtis for the cytokine. We performed a principal coordinate analysis separately on the two matrices and used a Procrustes analysis as implemented in QIIME to rotate, translate, and scale the matrices. The resulting transformed matrices were plotted using EMPeror. P-values for the Procrustes analysis were generated using Monte Carlo simulations (n=999). Raw correlation statistics were assigned the likelihood of these associations to be true positive associations by computing P-values via a Fisher's Z transform to normalize the distribution of the correlation scores.

[3] = Prevention and/or treatment of severe acute malnutrition (SAM) in infants; assay type: in vivo, human; details: 28 days
[4] = Day 40 compared to Day 6, within EVC001-fed infants
[5] = Day 60 compared to Day 6, within EVC001-fed infants
[6] = Day 6 (Baseline), before supplementation starts on Day 7

Substance: Bifidobacterium longum subsp. infantis EVC001 [B. infantis EVC001]
- Inflammatory responses to the food antigen (peanut extract allergy; compared to control mice): reduce
- Anaphylaxis (peanut extract allergy; peanut extract challenge with Cholera toxin): prevent
- Microbial short chain fatty acids (SCFA) [1]: elevated
- Fecal IFNγ level change over time [2, 4]: significantly increased
- Fecal IL-2 level change over time [2, 4]: significantly lower
- Fecal IL-5 level change over time [2, 4]: significantly lower
- Fecal IL-6 level change over time [2, 4]: significantly lower
- Fecal IL-10 level change over time [2, 4]: significantly lower
- Fecal IL-22 level change over time [2, 4]: significantly lower
- Fecal TNFα level change over time [2, 4]: significantly lower
- Fecal IFNγ level change over time [2, 5]: significantly higher
- Fecal IL-2 level change over time [2, 5]: significantly lower
- Fecal IL-5 level change over time [2, 5]: significantly lower
- Fecal IL-6 level change over time [2, 5]: significantly lower
- Fecal IL-10 level change over time [2, 5]: significantly lower
- Fecal TNFα level change over time [2, 5]: significantly lower
- Fecal IL-22 level change over time ([2]; Day 60 compared to Day 40, within EVC001-fed infants): significantly higher
- Fecal cytokine levels overall ([2]; first 60 days postnatal, versus Control infants): significantly lower
- IFNγ Median (SD) [2, 6]: 0.29 pg/mg
- IL-1β Median (SD) [2, 6]: 38.65 pg/mg
- IL-2 Median (SD) [2, 6]: 48.13 pg/mg
- IL-5 Median (SD) [2, 6]: 16.53 pg/mg
- IL-6 Median (SD) [2, 6]: 9.29 pg/mg
- IL-8 Median (SD) [2, 6]: 48.35 pg/mg
- IL-10 Median (SD) [2, 6]: 8.76 pg/mg
- IL-22 Median (SD) [2, 6]: 4.22 pg/mg
- TNFα Median (SD) [2, 6]: 26.71 pg/mg
- IL-2 Median (SD) ([2]; Day 40): 3.36 pg/mg
- IL-5 Median (SD) ([2]; Day 40): 1.48 pg/mg
- IL-6 Median (SD) ([2]; Day 40): 0.48 pg/mg
- IL-10 Median (SD) ([2]; Day 40): 0.55 pg/mg
- TNFα Median (SD) ([2]; Day 40): 2.7 pg/mg
- IFNγ Median (SD) ([2]; Day 60): 26.74 pg/mg
- IL-1β Median (SD) ([2]; Day 60): 13.22 pg/mg
- IL-2 Median (SD) ([2]; Day 60): 3.16 pg/mg
- IL-5 Median (SD) ([2]; Day 60): 1.85 pg/mg
- IL-6 Median (SD) ([2]; Day 60): 0.71 pg/mg
- IL-8 Median (SD) ([2]; Day 60): 70.13 pg/mg
- IL-10 Median (SD) ([2]; Day 60): 0.46 pg/mg
- IL-22 Median (SD) ([2]; Day 60): 3.54 pg/mg
- TNFα Median (SD) ([2]; Day 60): 3.97 pg/mg
- Incidence of symptoms of acute malnutrition [3]: lower
- TReg cells [3]: expansion
- Weight gain [3]: better
- B cell and plasma cell profiles, vaccine responses ([3]; children with SAM / hospitalized infants): improved
